Assay results as given in US9408854B2, “Methods and systems for pharmacogenomic treatment of cardiovascular conditions” (ROSTAQUO S.P.A., priority 2009, dated 2016).

Assays:
Na—K Pump and cSrc = test: Correction of the effect of mutated adducin or ouabain on Na-K pump and cSrc in animals; format: in vivo; conditions: nanomoles doses in animals
hypertensive patients = test: Pharmacogenomic study: change of office systolic blood pressure (DSBP5_0) after 5 weeks of rostafuroxin vs placebo, by genotype; format: in vivo, human; conditions: 0.05 to 0.50 mg/day vs 1.5 to 5 mg/day

C[C@]12CC[C@H](O)C[C@H]1CC[C@@H]1[C@@H]2CC[C@]2(C)[C@@](O)(c3ccoc3)CC[C@]12O [rostafuroxin, 17β-(3-furyl)-5β-androstane-3β,14β,17α-triol]
correction of the effect of mutated adducin or ouabain on Na—K Pump and cSrc (Na—K Pump and cSrc): able to selectively correct the effect of mutated adducin or ouabain on Na—K Pump and cSrc, without blocking the effect of wild adducin | drop of night blood pressure, low doses vs high doses (hypertensive patients): relevantly higher drop of night blood pressure as compared to high doses
